Test results: patent publication US8231916B2, “Use of a rice protein hydrolysate as pigmenting active principle” (Laboratoires Expanscience, priority 2006, dated 2012)

Test system: human cutaneous fibroblasts
Assay: Intracellular glutathione (GSH) in dermal fibroblasts irradiated with UVA
Type: cell-based
Details: 5 mM, 15 J/cm^2 UVA
Procedure: Dermal fibroblasts were inoculated in 60 mm petri dishes. The cells were pre-treated for 18 hours with 5 mM rice peptides or N-acetyl-cysteine (NAC=reference antioxidant molecule) and then irradiated at a dose of 15 J/cm^2 UVA. After irradiation, the fibroblasts were incubated for an additional 3 h at 37° C.
At the end of the treatment, two series of samples were collected in order to evaluate: • a. Total quantity of proteins according to the Lowry method. • b. The ratio of intracellular glutathione by assay (commercial kit).

CC(=O)N[C@@H](CS)C(=O)O [NAC, N-acetyl-cysteine]
GSH (μmol/g proteins): 28.209 μmol/g proteins
GSH, % increase compared to irradiated control cells: 29%
GSH (18 hours pre-treatment): 21.10 µM
